Data on 31 compounds can be found in US7091202B2, “4-arylspirocycloalkyl-2-aminopyrimidine carboxamide KCNQ potassium channel modulators” (Bristol-Myers Squibb Company, priority 2004, dated 2006).

Structures are written as SMILES. pEC50: −log10 of the molar value.

This test addresses T1, hQ23 (HEK-293 cell line stably transfected with one of the members of the KCNQ family) (Homo sapiens, UniProt O43525+O43526).
T1 construct: expressed in transfected cells; host or cells: HEK-293, stably transfected
The experiment in a line: Thallium flux assay for KCNQ channel blockers (FLIPR, BTC dye). Type of test: cell-based. As to conditions: hQ23 cells. The method in brief: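 FLIPR thallium flux readout (BTC dye, 2 μM AM ester) in stably transfected KCNQ HEK-293 cells, chloride-free HEPES buffer pH 7.3, Tl2SO4 stimulus. IC50s were fitted with a single-site logistic equation across 10 points at 1:3 dilutions, defined as 50% of positive-control block; minimal active concentration meant signal ≥4 SD over DMSO controls.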

T1 sequence (O43526 whole entry): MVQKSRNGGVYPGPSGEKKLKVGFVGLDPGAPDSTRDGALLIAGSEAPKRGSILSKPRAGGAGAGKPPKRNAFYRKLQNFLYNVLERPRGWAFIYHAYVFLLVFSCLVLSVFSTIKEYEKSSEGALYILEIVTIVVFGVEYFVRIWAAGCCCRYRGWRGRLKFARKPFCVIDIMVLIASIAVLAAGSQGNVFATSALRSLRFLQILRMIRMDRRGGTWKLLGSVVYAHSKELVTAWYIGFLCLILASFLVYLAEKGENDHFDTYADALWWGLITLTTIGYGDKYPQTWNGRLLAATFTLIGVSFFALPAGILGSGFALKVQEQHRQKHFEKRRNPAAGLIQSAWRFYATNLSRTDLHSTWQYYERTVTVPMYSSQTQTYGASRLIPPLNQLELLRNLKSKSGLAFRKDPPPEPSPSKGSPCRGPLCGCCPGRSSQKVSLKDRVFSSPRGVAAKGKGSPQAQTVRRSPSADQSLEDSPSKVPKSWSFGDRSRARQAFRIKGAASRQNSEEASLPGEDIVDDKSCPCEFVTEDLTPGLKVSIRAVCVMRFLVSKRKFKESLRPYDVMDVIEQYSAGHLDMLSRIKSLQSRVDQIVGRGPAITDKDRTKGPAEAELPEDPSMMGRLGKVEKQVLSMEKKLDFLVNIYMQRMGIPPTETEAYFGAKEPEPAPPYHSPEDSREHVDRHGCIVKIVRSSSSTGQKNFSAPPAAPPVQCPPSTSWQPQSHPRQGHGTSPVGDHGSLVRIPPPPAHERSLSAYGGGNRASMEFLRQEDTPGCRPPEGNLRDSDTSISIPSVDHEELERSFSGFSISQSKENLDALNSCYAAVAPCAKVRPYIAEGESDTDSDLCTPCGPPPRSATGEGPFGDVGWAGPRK
T1 sequence (O43525 whole entry): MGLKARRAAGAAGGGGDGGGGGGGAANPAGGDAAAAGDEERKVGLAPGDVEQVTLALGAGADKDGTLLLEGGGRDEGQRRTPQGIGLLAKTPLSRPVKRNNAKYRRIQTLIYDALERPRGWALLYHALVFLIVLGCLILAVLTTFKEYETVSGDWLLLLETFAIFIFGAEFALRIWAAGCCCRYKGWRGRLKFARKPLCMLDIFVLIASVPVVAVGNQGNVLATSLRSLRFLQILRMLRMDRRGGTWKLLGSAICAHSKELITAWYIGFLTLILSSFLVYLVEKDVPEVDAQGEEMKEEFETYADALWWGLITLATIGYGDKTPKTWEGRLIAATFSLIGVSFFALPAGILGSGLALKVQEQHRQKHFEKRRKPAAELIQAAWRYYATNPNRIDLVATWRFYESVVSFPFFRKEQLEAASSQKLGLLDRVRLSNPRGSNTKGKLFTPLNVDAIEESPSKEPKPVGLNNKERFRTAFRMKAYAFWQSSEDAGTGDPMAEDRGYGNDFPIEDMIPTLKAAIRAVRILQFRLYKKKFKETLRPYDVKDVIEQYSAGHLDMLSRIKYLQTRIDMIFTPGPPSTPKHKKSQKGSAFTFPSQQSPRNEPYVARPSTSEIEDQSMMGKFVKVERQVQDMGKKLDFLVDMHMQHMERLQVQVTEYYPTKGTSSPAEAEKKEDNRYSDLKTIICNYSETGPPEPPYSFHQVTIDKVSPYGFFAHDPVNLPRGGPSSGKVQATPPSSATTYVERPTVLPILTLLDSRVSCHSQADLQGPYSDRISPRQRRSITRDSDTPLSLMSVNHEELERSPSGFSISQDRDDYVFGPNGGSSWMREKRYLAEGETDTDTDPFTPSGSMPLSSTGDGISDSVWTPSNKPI

For `CC1CCN(c2ncc(C(=O)N(C)Cc3ccccc3)c(C3(c4ccc(F)cc4)CCCC3)n2)CC1` [Example 206, 5-pyrimidinecarboxamide, 4-[1-(4-fluorophenyl)cyclopentyl]-N-methyl-2-(4-methyl-1-piperidinyl)-N-(phenylmethyl)-], the pEC50 (thallium flux) was 6.58.
Consider `CC1CCC(Nc2ncc(C(=O)N(C)C3CCCCC3)c(C3(c4ccc(F)cc4)CCCC3)n2)CC1` (stereo not shown) [Example 207, 5-pyrimidinecarboxamide, N-cyclohexyl-4-[1-(4-fluorophenyl)cyclopentyl]-N-methyl-2-[(4-methylcyclohexyl)amino]-], for which, under “thallium flux”, the pEC50 was 6.06. This pEC50 is 0.52 log units lower than that of the compound before.
Under “thallium flux”, `CC1CCN(c2ncc(C(=O)N(C)C3CCCCC3)c(C3(c4ccc(F)cc4)CCCC3)n2)CC1` [Example 208, 5-pyrimidinecarboxamide, N-cyclohexyl-4-[1-(4-fluorophenyl)cyclopentyl]-N-methyl-2-(4-methyl-1-piperidinyl)-] gave a pEC50 of 6.25.
On the same count and under the same terms, in the case of `CN(C(=O)c1cnc(NC2CCCC2)nc1C1(c2ccc(F)cc2)CCCC1)C1CCCCC1` [Example 209, 5-pyrimidinecarboxamide, N-cyclohexyl-2-(cyclopentylamino)-4-[1-(4-fluorophenyl)cyclopentyl]-N-methyl-] it was 6.15; in that of `CC1CCC(Nc2ncc(C(=O)N3CCc4ccccc4C3)c(C3(c4ccc(F)cc4)CCCC3)n2)CC1` (stereo not shown) [Example 210, isoquinoline, 2-[[4-[1-(4-fluorophenyl)cyclopentyl]-2-[(4-methylcyclohexyl)amino]-5-pyrimidinyl]carbonyl]-1,2,3,4-tetrahydro-], 6.43; in that of `CC1CCCN(c2ncc(C(=O)N3CCc4ccccc4C3)c(C3(c4ccc(F)cc4)CCCC3)n2)C1` (stereo not shown) [Example 211, isoquinoline, 2-[[4-[1-(4-fluorophenyl)cyclopentyl]-2-(3-methyl-1-piperidinyl)-5-pyrimidinyl]carbonyl]-1,2,3,4-tetrahydro-], 6.57.
For the setting “thallium flux”, `CC1CCN(c2ncc(C(=O)N3CCc4ccccc4C3)c(C3(c4ccc(F)cc4)CCCC3)n2)CC1` [Example 212, isoquinoline, 2-[[4-[1-(4-fluorophenyl)cyclopentyl]-2-(4-methyl-1-piperidinyl)-5-pyrimidinyl]carbonyl]-1,2,3,4-tetrahydro-] had a pEC50 of 6.63.
`CCN(C(=O)c1cnc(N2CCCC2)nc1C1(c2ccc(F)cc2)CCCC1)C1CCCCC1` [Example 213, 5-pyrimidinecarboxamide, N-cyclohexyl-N-ethyl-4-[1-(4-fluorophenyl)cyclopentyl]-2-(1-pyrrolidinyl)-] gave a pEC50 (thallium flux) of 6.17.
Compound `CCN(C(=O)c1cnc(N2CCCC(C)C2)nc1C1(c2ccc(F)cc2)CCCC1)C1CCCCC1` (stereo not shown) [Example 214, 5-pyrimidinecarboxamide, N-cyclohexyl-N-ethyl-4-[1-(4-fluorophenyl)cyclopentyl]-2-(3-methyl-1-piperidinyl)-] had a negative logarithm of the EC50 (pEC50) (thallium flux) of 6.24.
Same read-out and setting: the figure for `CCN(C(=O)c1cnc(N2CCC(C)CC2)nc1C1(c2ccc(F)cc2)CCCC1)C1CCCCC1` [Example 215, 5-pyrimidinecarboxamide, N-cyclohexyl-N-ethyl-4-[1-(4-fluorophenyl)cyclopentyl]-2-(4-methyl-1-piperidinyl)-] is 6.04; for `CCC(C)Nc1ncc(C(=O)N(CC)C2CCCCC2)c(C2(c3ccc(F)cc3)CCCC2)n1` (stereo not shown) [Example 216, 5-pyrimidinecarboxamide, N-cyclohexyl-N-ethyl-4-[1-(4-fluorophenyl)cyclopentyl]-2-[(1-methylpropyl)amino]-] it is 6.09.
The same measure, in the same setting: the figure for `CCN(C(=O)c1cnc(NC2CCCC2)nc1C1(c2ccc(F)cc2)CCCC1)C1CCCCC1` [Example 217, 5-pyrimidinecarboxamide, N-cyclohexyl-2-(cyclopentylamino)-N-ethyl-4-[1-(4-fluorophenyl)cyclopentyl]-] is 6.32.
For `CC1CCN(c2ncc(C(=O)N3CCCC(C)C3)c(C3(c4ccc(F)cc4)CCCC3)n2)CC1` (stereo not shown) [Example 218, piperidine, 1-[[4-[1-(4-fluorophenyl)cyclopentyl]-2-(4-methyl-1-piperidinyl)-5-pyrimidinyl]carbonyl]-3-methyl-], where the note is “thallium flux”, the pEC50 was 6.06.
For `CC1CCC(Nc2ncc(C(=O)N(C)CCc3ccccc3)c(C3(c4ccc(F)cc4)CCCC3)n2)CC1` (stereo not shown) [Example 219, 5-pyrimidinecarboxamide, 4-[1-(4-fluorophenyl)cyclopentyl]-N-methyl-2-[(4-methylcyclohexyl)amino]-N-(2-phenylethyl)-], the pEC50 (thallium flux) was 6.48.
For `CN(CCc1ccccc1)C(=O)c1cnc(N2CCCC2)nc1C1(c2ccc(F)cc2)CCCC1` [Example 220, 5-pyrimidinecarboxamide, 4-[1-(4-fluorophenyl)cyclopentyl]-N-methyl-N-(2-phenylethyl)-2-(1-pyrrolidinyl)-], the negative-log EC50 (pEC50) (thallium flux) was 6.77. Against the preceding compound, the pEC50 is 0.29 log units higher.
The same measure, in the same setting: the figure for `CC1CCCN(c2ncc(C(=O)N(C)CCc3ccccc3)c(C3(c4ccc(F)cc4)CCCC3)n2)C1` (stereo not shown) [Example 221, 5-pyrimidinecarboxamide, 4-[1-(4-fluorophenyl)cyclopentyl]-N-methyl-2-(3-methyl-1-piperidinyl)-N-(2-phenylethyl)-] is 6.45.
As for `CC1CCN(c2ncc(C(=O)N(C)CCc3ccccc3)c(C3(c4ccc(F)cc4)CCCC3)n2)CC1` [Example 222, 5-pyrimidinecarboxamide, 4-[1-(4-fluorophenyl)cyclopentyl]-N-methyl-2-(4-methyl-1-piperidinyl)-N-(2-phenylethyl)-], where the note is “thallium flux”, the pEC50 was 6.56.
The same measure, in the same setting: in the case of `CCC(C)Nc1ncc(C(=O)N(C)CCc2ccccc2)c(C2(c3ccc(F)cc3)CCCC2)n1` (stereo not shown) [Example 223, 5-pyrimidinecarboxamide, 4-[1-(4-fluorophenyl)cyclopentyl]-N-methyl-2-[(1-methylpropyl)amino]-N-(2-phenylethyl)-] it was 6.17.
In the case of `CCN(C)C(=O)c1cnc(NC2CCC(C)CC2)nc1C1(c2ccc(F)cc2)CCCC1` (stereo not shown) [Example 225, 5-pyrimidinecarboxamide, N-ethyl-4-[1-(4-fluorophenyl)cyclopentyl]-N-methyl-2-[(4-methylcyclohexyl)amino]-], the pEC50 (thallium flux) is 6.34.
Same read-out and setting: in the case of `CCN(C)C(=O)c1cnc(N2CCCC(C)C2)nc1C1(c2ccc(F)cc2)CCCC1` (stereo not shown) [Example 226, 5-pyrimidinecarboxamide, N-ethyl-4-[1-(4-fluorophenyl)cyclopentyl]-N-methyl-2-(3-methyl-1-piperidinyl)-] it was 6.30; in that of `CCN(C)C(=O)c1cnc(N2CCC(C)CC2)nc1C1(c2ccc(F)cc2)CCCC1` [Example 227, 5-pyrimidinecarboxamide, N-ethyl-4-[1-(4-fluorophenyl)cyclopentyl]-N-methyl-2-(4-methyl-1-piperidinyl)-], 6.05.
On the same count and under the same terms, in the case of `CCN(Cc1ccccc1)C(=O)c1cnc(NC2CCC(C)CC2)nc1C1(c2ccc(F)cc2)CCCC1` (stereo not shown) [Example 228, 5-pyrimidinecarboxamide, N-ethyl-4-[1-(4-fluorophenyl)cyclopentyl]-2-[(4-methylcyclohexyl)amino]-N-(phenylmethyl)-] it was 6.20.
Under “thallium flux”, `CCN(Cc1ccccc1)C(=O)c1cnc(N2CCCC(C)C2)nc1C1(c2ccc(F)cc2)CCCC1` (stereo not shown) [Example 229, 5-pyrimidinecarboxamide, N-ethyl-4-[1-(4-fluorophenyl)cyclopentyl]-2-(3-methyl-1-piperidinyl)-N-(phenylmethyl)-] gave a pEC50 of 6.43.
On the same count and under the same terms, the figure for `CCN(Cc1ccccc1)C(=O)c1cnc(N2CCC(C)CC2)nc1C1(c2ccc(F)cc2)CCCC1` [Example 230, 5-pyrimidinecarboxamide, N-ethyl-4-[1-(4-fluorophenyl)cyclopentyl]-2-(4-methyl-1-piperidinyl)-N-(phenylmethyl)-] is 6.77; for `CCC(C)Nc1ncc(C(=O)N(CC)Cc2ccccc2)c(C2(c3ccc(F)cc3)CCCC2)n1` (stereo not shown) [Example 231, 5-pyrimidinecarboxamide, N-ethyl-4-[1-(4-fluorophenyl)cyclopentyl]-2-[(1-methylpropyl)amino]-N-(phenylmethyl)-] it is 6.10.
Regarding `CCN(Cc1ccccc1)C(=O)c1cnc(NC2CCCC2)nc1C1(c2ccc(F)cc2)CCCC1` [Example 232, 5-pyrimidinecarboxamide, 2-(cyclopentylamino)-N-ethyl-4-[1-(4-fluorophenyl)cyclopentyl]-N-(phenylmethyl)-], the negative-log EC50 (pEC50) (thallium flux assay) was 6.34.
For `O=C(NCc1ccc2c(c1)OCO2)c1cnc(NC2CC2)nc1C1(c2ccc(F)cc2)CCCC1` [Example 233, 5-pyrimidinecarboxamide, N-(1,3-benzodioxol-5-ylmethyl)-2-(cyclopropylamino)-4-[1-(4-fluorophenyl)cyclopentyl]-], the negative-log EC50 (pEC50) (thallium flux assay) is 6.36.
On the same count and under the same terms, in the case of `CC1CCC(Nc2ncc(C(=O)NCc3ccc4c(c3)OCO4)c(C3(c4ccc(F)cc4)CCCC3)n2)CC1` (stereo not shown) [Example 234, 5-pyrimidinecarboxamide, N-(1,3-benzodioxol-5-ylmethyl)-4-[1-(4-fluorophenyl)cyclopentyl]-2-[(4-methylcyclohexyl)amino]-] it was 6.63; in that of `O=C(NCc1ccc2c(c1)OCO2)c1cnc(N2CCCC2)nc1C1(c2ccc(F)cc2)CCCC1` [Example 235, 5-pyrimidinecarboxamide, N-(1,3-benzodioxol-5-ylmethyl)-4-[1-(4-fluorophenyl)cyclopentyl]-2-(1-pyrrolidinyl)-], 6.67.
On to `CC1CCCN(c2ncc(C(=O)NCc3ccc4c(c3)OCO4)c(C3(c4ccc(F)cc4)CCCC3)n2)C1` (stereo not shown) [Example 236, 5-pyrimidinecarboxamide, N-(1,3-benzodioxol-5-ylmethyl)-4-[1-(4-fluorophenyl)cyclopentyl]-2-(3-methyl-1-piperidinyl)-], for which the negative-log EC50 (pEC50) (thallium flux assay) is 7.41.
On to `CC1CCN(c2ncc(C(=O)NCc3ccc4c(c3)OCO4)c(C3(c4ccc(F)cc4)CCCC3)n2)CC1` [Example 237, 5-pyrimidinecarboxamide, N-(1,3-benzodioxol-5-ylmethyl)-4-[1-(4-fluorophenyl)cyclopentyl]-2-(4-methyl-1-piperidinyl)-], for which the pEC50 (thallium flux assay) is 6.27. This pEC50 lies 1.14 log units lower than the previous one.

By pEC50 is commonly meant the EC50 on a negative log10 scale, so that one unit is a factor of ten. A lower pEC50 goes with a high EC50.
